pIC50: −log10 of the molar value. Each block holds one molecule with its values, some of them ahead of it.
Tests used:
[1] = Oral bioavailability was determined; range 49-102%; format: ADME, organism-based; conditions: in vivo, read-out: Bioavailabiility
[2] = system: Cavia porcellus; test: The inhibitory dose for antigen induced bronchoconstriction in guinea pig after peroral administration; format: functional; conditions: po, read-out: ID50 (the source's name)
[3] = organism: Cavia porcellus; test: The compound was tested for blocking of LTD4-induced contractions of guinea pig trachea; format: functional; conditions: read-out: pA2 (converted)
[4] = organism: Mus musculus; test: The compound was tested for inhibitory activity which inhibits LTC4 synthesis by zymosan-activated mouse peritoneal macrophages; format: functional
[5] = The compound was tested for inhibitory activity which inhibits prostaglandin E2[PGE2] synthesis by zymosan-activated mouse peritoneal macrophages; format: functional
[6] = organism: Rattus norvegicus; test: The compound was tested for inhibitory activity against synthesis of immunoreactive LTB4; format: functional
[7] = organism: Rattus norvegicus; test: The compound was tested for inhibitory activity against synthesis of immunoreactive thromboxane B2 in rat PMNs; format: functional
[8] = system: Rattus norvegicus; test: The compound was tested for inhibition in rat carrageenan paw edema assay; format: functional
[9] = Plasma half-life was determined; 0.5-17.7h; format: ADME
[10] = target: T1, Prostaglandin G/H synthase (cyclooxygenase) (Mus musculus, UniProt P22437+Q05769); test: The compound was tested for inhibitory activity against Prostaglandin G/H synthase in mouse macrophage; format: protein assay
T1 sequence (P22437 whole entry): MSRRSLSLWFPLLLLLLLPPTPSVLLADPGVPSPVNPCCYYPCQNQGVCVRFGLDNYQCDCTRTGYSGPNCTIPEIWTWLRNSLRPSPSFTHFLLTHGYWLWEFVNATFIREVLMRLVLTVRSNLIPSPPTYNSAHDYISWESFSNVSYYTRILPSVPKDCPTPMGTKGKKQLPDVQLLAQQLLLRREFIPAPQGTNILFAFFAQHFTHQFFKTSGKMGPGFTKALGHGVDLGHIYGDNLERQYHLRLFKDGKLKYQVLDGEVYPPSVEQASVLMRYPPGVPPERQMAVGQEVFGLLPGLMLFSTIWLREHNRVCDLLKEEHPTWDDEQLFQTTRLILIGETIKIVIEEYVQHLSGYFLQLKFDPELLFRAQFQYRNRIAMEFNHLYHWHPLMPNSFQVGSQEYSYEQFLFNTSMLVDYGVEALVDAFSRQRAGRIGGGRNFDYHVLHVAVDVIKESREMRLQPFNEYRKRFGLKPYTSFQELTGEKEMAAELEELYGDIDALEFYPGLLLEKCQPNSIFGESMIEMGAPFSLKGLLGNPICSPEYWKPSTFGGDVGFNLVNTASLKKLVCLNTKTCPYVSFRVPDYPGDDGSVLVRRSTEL
T1 sequence (Q05769 whole entry): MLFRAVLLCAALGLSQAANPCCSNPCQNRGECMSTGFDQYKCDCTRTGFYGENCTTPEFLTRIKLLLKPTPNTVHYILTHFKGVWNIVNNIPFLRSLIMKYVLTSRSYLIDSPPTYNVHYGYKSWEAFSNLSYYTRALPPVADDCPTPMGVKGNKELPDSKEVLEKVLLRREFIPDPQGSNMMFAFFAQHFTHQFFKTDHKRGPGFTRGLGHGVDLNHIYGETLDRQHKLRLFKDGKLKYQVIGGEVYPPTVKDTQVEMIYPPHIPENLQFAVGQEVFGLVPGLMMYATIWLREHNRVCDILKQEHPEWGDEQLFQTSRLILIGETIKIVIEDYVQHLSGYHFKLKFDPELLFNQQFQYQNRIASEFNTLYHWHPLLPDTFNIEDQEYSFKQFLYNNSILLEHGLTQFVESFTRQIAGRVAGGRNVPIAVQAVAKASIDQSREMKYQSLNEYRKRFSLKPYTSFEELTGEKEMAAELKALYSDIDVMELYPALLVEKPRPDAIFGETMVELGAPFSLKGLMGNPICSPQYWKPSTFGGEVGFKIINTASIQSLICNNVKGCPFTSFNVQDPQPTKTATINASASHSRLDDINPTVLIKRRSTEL

[11] = system: RBL-1; test: The compound was tested for inhibitory activity in rat RBL-1 cells; format: functional, cell-based
[12] = target: T2, Polyunsaturated fatty acid 5-lipoxygenase (Homo sapiens, UniProt P09917); test: The compound was tested for inhibitory activity against 5-lipoxygenase in human polymorphonuclear leukocytes[PMNS]; format: cell-based
T2 sequence (P09917 whole entry): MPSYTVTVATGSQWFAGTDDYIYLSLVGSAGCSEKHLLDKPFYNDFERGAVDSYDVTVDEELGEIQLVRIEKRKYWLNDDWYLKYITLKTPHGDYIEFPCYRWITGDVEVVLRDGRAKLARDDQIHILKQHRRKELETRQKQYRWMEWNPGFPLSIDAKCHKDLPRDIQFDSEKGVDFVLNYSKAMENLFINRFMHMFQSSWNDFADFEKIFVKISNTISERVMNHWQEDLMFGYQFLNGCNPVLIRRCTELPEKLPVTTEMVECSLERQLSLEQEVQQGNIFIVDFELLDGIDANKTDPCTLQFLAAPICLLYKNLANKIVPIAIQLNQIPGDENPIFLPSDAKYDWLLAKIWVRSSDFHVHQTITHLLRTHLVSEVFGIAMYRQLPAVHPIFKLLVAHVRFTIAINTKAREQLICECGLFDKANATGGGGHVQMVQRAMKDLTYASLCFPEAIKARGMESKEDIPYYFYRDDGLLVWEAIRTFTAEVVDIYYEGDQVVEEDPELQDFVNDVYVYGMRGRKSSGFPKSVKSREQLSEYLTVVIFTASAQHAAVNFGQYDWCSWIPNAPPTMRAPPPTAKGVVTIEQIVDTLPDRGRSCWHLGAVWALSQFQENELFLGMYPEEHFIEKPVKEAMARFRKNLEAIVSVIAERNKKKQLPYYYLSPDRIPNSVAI

[13] = target: T3, Polyunsaturated fatty acid 5-lipoxygenase (Rattus norvegicus, UniProt P12527); test: The compound was tested for inhibitory activity against 5-lipoxygenase in rat polymorphonuclear leukocytes[PMNS] (in vitro); format: cell-based
T3 sequence (P12527 whole entry): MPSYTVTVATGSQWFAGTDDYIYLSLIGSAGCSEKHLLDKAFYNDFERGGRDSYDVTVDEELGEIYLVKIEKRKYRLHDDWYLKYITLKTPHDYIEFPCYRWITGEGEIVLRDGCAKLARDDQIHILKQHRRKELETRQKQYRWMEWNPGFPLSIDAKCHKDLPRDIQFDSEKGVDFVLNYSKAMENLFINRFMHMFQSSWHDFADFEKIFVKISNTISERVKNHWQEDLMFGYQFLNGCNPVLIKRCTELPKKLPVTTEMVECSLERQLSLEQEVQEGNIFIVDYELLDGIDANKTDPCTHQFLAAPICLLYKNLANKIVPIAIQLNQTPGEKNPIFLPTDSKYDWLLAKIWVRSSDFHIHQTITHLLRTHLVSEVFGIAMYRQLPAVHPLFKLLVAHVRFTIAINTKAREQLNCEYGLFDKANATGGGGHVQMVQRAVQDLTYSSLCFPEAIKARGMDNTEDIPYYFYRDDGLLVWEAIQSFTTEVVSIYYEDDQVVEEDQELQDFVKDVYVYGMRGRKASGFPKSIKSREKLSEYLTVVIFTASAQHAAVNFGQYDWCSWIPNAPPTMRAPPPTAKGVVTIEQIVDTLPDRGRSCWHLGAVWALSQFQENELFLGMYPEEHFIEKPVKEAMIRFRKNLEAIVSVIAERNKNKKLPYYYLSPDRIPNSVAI

[14] = system: Mus musculus; test: The effective dose for inhibition of mouse zymosan peritonitis (in vivo); format: functional
[15] = target: Cyclooxygenase (Rattus norvegicus) (UniProt P35355+Q63921); test: The compound was tested for inhibition of Prostaglandin G/H synthase in rat polymorphonuclear leukocytes[PMNS] at 100 uM concentration; format: functional, cell-based
[16] = system: Rattus norvegicus; test: The effective dose after peroral administration for antiinflammatory activity against rat carrageenan edema; format: functional; conditions: po
[17] = target: T4, Polyunsaturated fatty acid 5-lipoxygenase (Rattus norvegicus) (UniProt P12527); test: The compound was tested for inhibition of isolated 5-Lipoxygenase
T4 sequence (whole entry): T3 sequence (P12527 whole entry)

[18] = system: RBL-2H3; test: The compound was tested for inhibition LTC4 synthesis; format: functional, Rattus norvegicus
[19] = organism: Mus musculus; test: The compound was tested for inhibitory activity against LTC4 synthesis in mouse peritoneal macrophages; format: functional
[20] = organism: Mus musculus; test: The compound was tested for inhibition of prostaglandin E2[PGE2] synthesis; format: functional, organism-based
[21] = organism: Mus musculus; test: The compound was tested for inhibition of thromboxane B2 synthesis; format: functional, organism-based
[22] = system: RBL-2H3; test: The compound was tested for inhibition of translocation in SAR in RBL-2H3 cells; format: functional, Rattus norvegicus
[23] = organism: Rattus norvegicus; test: The compound was tested for inhibitory activity against […] synthesis in rat macrophages; format: functional
[24] = target: T3, Polyunsaturated fatty acid 5-lipoxygenase; test: The compound was tested for inhibitory activity against 5-lipoxygenase in rat RBL-1; format: cell-based
[25] = system: RBL-1; test: The compound was tested for inhibitory activity against 5-HETE synthesis in rat RBL-1; format: functional, cell-based
[26] = target: T3, Polyunsaturated fatty acid 5-lipoxygenase; test: The compound was tested for inhibitory activity against 5-lipoxygenase using rat polymorphonuclear leukocytes[PMNS]
[27] = system: Cavia porcellus; test: The compound was tested for inhibition of LTD4-induced bronchoconstriction in guinea pig at 50 mg/kg (in vivo); format: functional; conditions: read-out: Inhibition
[28] = target: T5, Cyclooxygenase (Rattus norvegicus, UniProt P35355+Q63921); test: The compound was tested for inhibitory activity against Prostaglandin G/H synthase using rat polymorphonuclear leukocytes[PMNS]
T5 sequence (P35355 whole entry): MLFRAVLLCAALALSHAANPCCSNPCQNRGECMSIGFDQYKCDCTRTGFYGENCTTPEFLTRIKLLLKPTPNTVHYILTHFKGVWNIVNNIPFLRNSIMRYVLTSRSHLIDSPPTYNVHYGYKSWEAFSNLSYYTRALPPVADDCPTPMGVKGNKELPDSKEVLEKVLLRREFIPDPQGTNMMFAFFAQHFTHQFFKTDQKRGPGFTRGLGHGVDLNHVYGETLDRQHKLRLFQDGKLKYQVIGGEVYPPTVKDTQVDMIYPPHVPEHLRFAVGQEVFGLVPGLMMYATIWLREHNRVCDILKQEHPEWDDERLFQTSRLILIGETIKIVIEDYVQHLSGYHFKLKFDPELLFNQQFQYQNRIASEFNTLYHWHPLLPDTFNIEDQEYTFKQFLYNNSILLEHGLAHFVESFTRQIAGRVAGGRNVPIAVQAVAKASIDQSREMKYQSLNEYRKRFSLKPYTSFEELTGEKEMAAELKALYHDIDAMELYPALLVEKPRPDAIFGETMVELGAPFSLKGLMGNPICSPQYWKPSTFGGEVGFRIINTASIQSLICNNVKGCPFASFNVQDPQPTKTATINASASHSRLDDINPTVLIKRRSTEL
T5 sequence (Q63921 whole entry): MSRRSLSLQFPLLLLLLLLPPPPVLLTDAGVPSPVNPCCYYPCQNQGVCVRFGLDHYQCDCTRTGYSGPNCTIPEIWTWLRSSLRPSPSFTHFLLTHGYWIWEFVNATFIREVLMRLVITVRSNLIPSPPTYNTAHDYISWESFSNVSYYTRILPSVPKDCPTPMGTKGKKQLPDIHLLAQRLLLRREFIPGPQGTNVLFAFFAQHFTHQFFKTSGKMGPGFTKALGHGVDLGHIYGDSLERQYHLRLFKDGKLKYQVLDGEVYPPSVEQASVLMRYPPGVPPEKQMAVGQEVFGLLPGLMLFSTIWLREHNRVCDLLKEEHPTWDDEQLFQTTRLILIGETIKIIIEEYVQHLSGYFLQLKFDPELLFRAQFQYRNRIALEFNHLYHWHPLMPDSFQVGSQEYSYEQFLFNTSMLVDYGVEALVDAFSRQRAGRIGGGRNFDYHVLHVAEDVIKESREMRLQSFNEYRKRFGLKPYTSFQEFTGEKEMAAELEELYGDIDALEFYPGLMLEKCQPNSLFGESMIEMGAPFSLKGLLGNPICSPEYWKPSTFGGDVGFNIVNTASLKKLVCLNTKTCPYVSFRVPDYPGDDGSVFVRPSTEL

bioavailability [1]: 49%
pIC50 [4]: 5.36
pIC50 [5]: 5.37
pIC50 [6]: 5.34
pIC50 [7]: 5.48
half-life [9]: 30 min
Structure (SMILES): O=S(=O)(Nc1cccc(OCc2ccc3ccccc3n2)c1)C(F)(F)F [RITOLUKAST]
ED50 [2]: 0.6 mg/kg
Kb [3]: 0.024 µM
Inhibition [8]: 20%

pIC50 [13]: 6.89
Inhibition [15]: 30%
Structure (SMILES): CC(C(=O)O)c1ccc2cc(OCc3ccc4ccccc4n3)ccc2c1 (stereo not drawn)
ED50 [14]: 11.1 mg/kg
ED50 [16]: 75 mg/kg

Inhibition [17]: 1530 nM
pIC50 [19]: 6.35
pIC50 [20]: 5.14
pIC50 [21]: 5.34
Structure (SMILES): COC(=O)CCC(=O)N(O)c1cccc(OCc2ccc3ccccc3n2)c1
Inhibition [18]: 780 nM
Inhibition [22]: 750 nM

pIC50 [26]: 5.22
IC50 [28]: > 100 µM
Structure (SMILES): Oc1cccc(OCc2ccc3ccccc3n2)c1
inhibition in vivo at 50 mg/kg [27]: 82%

Further lines, the molecule ahead of its results:

Structure (SMILES): Cc1c(CC(=O)O)c2cc(OCc3ccc4ccccc4n3)ccc2n1Cc1ccc(Cl)cc1
IC50 [10]: 0.004 µM

Structure (SMILES): C[C@H](OCC(=O)O)[C@@H](C)Sc1cc(C(C)(C)C)c(O)c(C(C)(C)C)c1
pIC50 [11]: 5.43

Structure (SMILES): O=C(O)c1ccc(CN(Cc2cccc(F)c2)c2ccc(OCc3ccc4ccccc4n3)cc2)cc1
pIC50 [12]: 7.70

Structure (SMILES): CC1=C(C)C(=O)C(CCCCC#CCCCC#CCO)=C(C)C1=O [DOCEBENONE]
pIC50 [23]: 7.10

Structure (SMILES): CCN1C(=S)N(c2ccc(N3CCN(c4ccc(O)cc4)CC3)cc2)C(=O)C1(C)C
pIC50 [24]: 6.30

Structure (SMILES): CC1=C(C)C(=O)C(Cc2cccnc2)=C(C)C1=O
pIC50 [25]: 7.21

— ChEMBL document CHEMBL1125472, “5-lipoxygenase: properties, pharmacology, and the quinolinyl(bridged)aryl class of inhibitors” (J Med Chem, 1992)
